Reference: ChEMBL document CHEMBL5352424, “Boosting caffeic acid performance as antioxidant and monoamine oxidase B/catechol-O-methyltransferase inhibitor” (Eur J Med Chem, 2022)
The source made the active and inactive calls. The rule behind the calls is not given here.

Legend:
[1] = target: T1, Catechol O-methyltransferase (Rattus norvegicus, UniProt P22734); test: Inhibition of MB-COMT in rat liver homogenates using adrenaline as substrate and SAM as cofactor preincubated for 20 mins followed by substrate addition and measured after 5 mins; assay type: tissue-based
T1 sequence (P22734 whole entry): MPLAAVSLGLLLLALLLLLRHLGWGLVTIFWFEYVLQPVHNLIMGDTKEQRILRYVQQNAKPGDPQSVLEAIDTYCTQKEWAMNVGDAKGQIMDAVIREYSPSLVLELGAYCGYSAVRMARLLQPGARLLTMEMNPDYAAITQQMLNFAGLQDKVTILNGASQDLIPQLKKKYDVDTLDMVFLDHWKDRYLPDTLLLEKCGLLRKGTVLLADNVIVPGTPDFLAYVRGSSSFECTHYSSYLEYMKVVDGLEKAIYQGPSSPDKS

[2] = target: T1, Catechol O-methyltransferase; test: Inhibition of MB-COMT in rat brain homogenates using adrenaline as substrate and SAM as cofactor preincubated for 20 mins followed by substrate addition and measured after 5 mins; assay type: tissue-based
[3] = tested on: SH-SY5Y; test: Cytoprotective activity against t-BHP induced oxidative stress in retinoic acid and TPA-differentiated human SH-SY5Y cells assessed as increase in resorufin fluorescence at 10 uM pretreated for 30 mins followed by t-BHP stimulation and measured after 24 hrs by resazurin dye based analysis; assay type: functional, cell-based; details: time 24.5 hrs
[4] = tested on: SH-SY5Y; test: Cytotoxicity against retinoic acid and TPA-differentiated human SH-SY5Y cells assessed as reduction in metabolic activity by measuring resazurin reduction at 10 uM incubated for 24 hrs by resazurin dye based assay relative to control; assay type: toxicity, cell-based; set-up: scale not given: the % may be the effect or the level left
[5] = Retention time of compound at pH 2.6 by LC/UV analysis; assay type: physicochemical; details: buffer
[6] = species on record: Rattus norvegicus; test: Selectivity index, ratio of IC50 for S-COMT in rat liver homogenates to IC50 for MB-COMT in rat brain homogenates; assay type: tissue-based
[7] = Antioxidant activity assessed as ORAC-FL index; assay type: functional
[8] = tested on: SK-N-SH; test: Cytotoxicity against human SK-N-SH cells assessed as reduction in calcein fluorescence at 30 to 50 uM by calcein-AM assay; assay type: toxicity, cell-based; details: dose 30-50 µM
[9] = target: T2, Amine oxidase [flavin-containing] B (Homo sapiens, UniProt P27338); test: Inhibition of human MAO-B using kynuramine as substrate incubated for 30 mins by spectrophotometry analysis
T2 sequence (P27338 whole entry): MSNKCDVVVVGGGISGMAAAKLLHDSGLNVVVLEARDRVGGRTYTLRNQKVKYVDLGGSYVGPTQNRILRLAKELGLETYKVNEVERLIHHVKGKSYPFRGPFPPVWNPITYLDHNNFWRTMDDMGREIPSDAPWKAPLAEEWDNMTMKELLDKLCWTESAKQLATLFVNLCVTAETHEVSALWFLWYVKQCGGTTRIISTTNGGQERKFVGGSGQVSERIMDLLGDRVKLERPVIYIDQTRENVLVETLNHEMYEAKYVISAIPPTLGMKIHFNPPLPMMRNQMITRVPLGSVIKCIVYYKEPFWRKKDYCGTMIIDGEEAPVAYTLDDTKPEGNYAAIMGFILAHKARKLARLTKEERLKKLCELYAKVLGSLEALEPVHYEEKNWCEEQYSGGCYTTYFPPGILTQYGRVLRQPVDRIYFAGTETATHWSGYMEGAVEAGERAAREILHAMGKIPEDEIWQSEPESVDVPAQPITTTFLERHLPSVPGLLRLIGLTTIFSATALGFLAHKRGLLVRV

[10] = species on record: Homo sapiens; test: Selectivity index, ratio of IC50 for human MAO-A to IC50 for human MAO-B
[11] = target: T3, Catechol O-methyltransferase (Rattus norvegicus) (UniProt P22734); test: Inhibition of S-COMT in rat liver homogenates using adrenaline as substrate and SAM as cofactor at 30 uM preincubated for 20 mins followed by substrate addition and measured after 5 mins relative to control; assay type: tissue-based; details: time 25.0 min
T3 sequence (whole entry): T1 sequence (P22734 whole entry)

[12] = tested on: SH-SY5Y; test: Cytotoxicity against retinoic acid and TPA-differentiated human SH-SY5Y cells assessed as reduction in lysosomal activity by measuring neutral red dye internalization at 10 to 50 uM incubated for 24 hrs by neutral red dye based assay; assay type: toxicity, cell-based; details: dose 10-50 µM
[13] = Oxidation potential of compound at pH 7.3 by differential pulse voltammetry analysis; assay type: physicochemical
[14] = Chromatographic hydrophobicity index of compound at pH 2.6 by HPLC analysis; assay type: physicochemical
[15] = target: T4, Amine oxidase [flavin-containing] A (Homo sapiens, UniProt P21397); test: Inhibition of human MAO-A using kynuramine as substrate at 10 uM incubated for 30 mins by spectrophotometry analysis relative to control; details: 0.5 h
T4 sequence (P21397 whole entry): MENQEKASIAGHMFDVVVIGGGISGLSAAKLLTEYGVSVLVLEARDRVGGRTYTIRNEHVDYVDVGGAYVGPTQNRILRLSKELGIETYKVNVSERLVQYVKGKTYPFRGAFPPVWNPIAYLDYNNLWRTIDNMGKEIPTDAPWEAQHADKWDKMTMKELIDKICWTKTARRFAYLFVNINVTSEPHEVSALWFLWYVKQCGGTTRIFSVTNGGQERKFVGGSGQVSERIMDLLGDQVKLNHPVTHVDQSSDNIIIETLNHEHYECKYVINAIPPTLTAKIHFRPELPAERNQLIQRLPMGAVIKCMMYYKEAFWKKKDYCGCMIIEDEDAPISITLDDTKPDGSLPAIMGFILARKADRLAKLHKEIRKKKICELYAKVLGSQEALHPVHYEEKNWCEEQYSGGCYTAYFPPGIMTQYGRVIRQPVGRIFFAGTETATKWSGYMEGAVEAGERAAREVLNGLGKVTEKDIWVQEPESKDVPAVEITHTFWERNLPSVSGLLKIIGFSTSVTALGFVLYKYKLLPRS

[16] = target: T3, Catechol O-methyltransferase (Rattus norvegicus); test: Inhibition of MB-COMT in rat brain homogenates using adrenaline as substrate and SAM as cofactor at 30 uM preincubated for 20 mins followed by substrate addition and measured after 5 mins relative to control; assay type: tissue-based; details: time 25.0 min
[17] = target: T3, Catechol O-methyltransferase (Rattus norvegicus); test: Inhibition of MB-COMT in rat liver homogenates using adrenaline as substrate and SAM as cofactor at 30 uM preincubated for 20 mins followed by substrate addition and measured after 5 mins relative to control; assay type: tissue-based; details: time 25.0 min
[18] = tested on: SH-SY5Y; test: Cytotoxicity against retinoic acid and TPA-differentiated human SH-SY5Y cells assessed as reduction in lysosomal activity by measuring neutral red dye uptake at 10 uM incubated for 24 hrs by neutral red dye based assay relative to control; assay type: toxicity, cell-based; set-up: scale not given: the % may be the effect or the level left
[19] = tested on: SH-SY5Y; test: Cytotoxicity against retinoic acid and TPA-differentiated human SH-SY5Y cells assessed as reduction in lysosomal activity at 50 uM incubated for 24 hrs by neutral red dye based assay; assay type: toxicity, cell-based
[20] = tested on: SH-SY5Y; test: Cytotoxicity against retinoic acid and TPA-differentiated human SH-SY5Y cells assessed as increase in intracellular ROS formation by measuring increase in DCF fluorescence at 10 to 50 uM incubated for 24 hrs by DCF fluorescence analysis; assay type: toxicity, cell-based; details: dose 10-50 µM
[21] = target: T2, Amine oxidase [flavin-containing] B; test: Inhibition of human MAO-B using kynuramine as substrate at 10 uM incubated for 30 mins by spectrophotometry analysis relative to control; details: 0.5 h
[22] = tested on: SH-SY5Y; test: Cytotoxicity against retinoic acid and TPA-differentiated human SH-SY5Y cells assessed as reduction in metabolic activity by measuring reduction in resorufin fluorescence at 10 to 50 uM incubated for 24 hrs by resazurin dye based assay; assay type: toxicity, cell-based; details: dose 10-50 µM
[23] = tested on: SH-SY5Y; test: Cytotoxicity against retinoic acid and TPA-differentiated human SH-SY5Y cells upto 50 uM incubated for 24 hrs by resazurin dye based assay; assay type: toxicity, cell-based
[24] = tested on: SH-SY5Y; test: Cytotoxicity against retinoic acid and TPA-differentiated human SH-SY5Y cells upto 50 uM incubated for 24 hrs by neutral red dye based assay; assay type: toxicity, cell-based

IC50 [1]	IC50 [2]	IC50 [9]	Ratio IC50 [10]	inhibition [11]	Ep [13]	inhibition at 10 µM [15]	inhibition at 10 µM [21]	Structure (SMILES)	Activity [3]	Activity [4]	Ratio IC50 [6]	Activity index [7]	Activity [12]	Activity [18]	Activity [19]	Activity [22]	other results
–	–	1150 nM	> 8.7	< 50%	174 mV	< 50%	–	N#C/C(=C\C=C\c1ccc(O)c(O)c1)C(=O)NCc1ccccc1 [LS-104]	Active	> 85%	–	2.8	–	> 85%	Toxic	–	inhibition [16]: < 50%; inhibition [17]: < 50%
–	–	–	–	< 50%	129 mV	< 50%	< 50%	O=C(O)/C=C/C=C/c1ccc(O)c(O)c1 [DEMETHYLENATED PIPERIC ACID]	inactive	–	–	5.5	Non-Toxic	–	–	Non-Toxic	inhibition [16]: < 50%; inhibition [17]: < 50%; Activity [20]: Non-Toxic
6130 nM	1620 nM	–	–	< 50%	114 mV	< 50%	< 50%	O=C(/C=C/C=C/c1ccc(O)c(O)c1)Nc1ccccc1	Active	> 85%	> 19	4.1	–	> 85%	Toxic	–	–
4270 nM	1480 nM	–	–	< 50%	129 mV	< 50%	< 50%	O=C(/C=C/C=C/c1ccc(O)c(O)c1)NCc1ccccc1	Active	> 85%	> 20	4	–	> 85%	Toxic	–	–
3740 nM	2410 nM	4550 nM	> 2.2	< 50%	161 mV	< 50%	–	N#C/C(=C\C=C\c1ccc(O)c(O)c1)C(=O)Nc1ccccc1	Active	> 85%	> 12	3.5	–	> 85%	Toxic	–	–
3640 nM	1320 nM	–	–	< 50%	124 mV	< 50%	< 50%	O=C(/C=C/C=C/c1ccc(O)c(O)c1)NCCc1ccccc1	Active	–	> 22	3.3	–	> 85%	Toxic	Non-Toxic	–

Second part, the compound before the results:

Structure (SMILES)	IC50 [1]	IC50 [2]	IC50 [9]	Ratio IC50 [10]	inhibition [11]	Ep [13]	inhibition at 10 µM [15]	inhibition at 10 µM [21]	Activity [3]	Activity [4]	Ratio IC50 [6]	Activity index [7]	Activity [12]	Activity [18]	Activity [19]	Activity [22]	other results
N#C/C(=C\C=C\c1ccc(O)c(O)c1)C(=O)N1CCCCC1	2690 nM	1330 nM	4270 nM	> 2.3	< 50%	154 mV	< 50%	–	Active	> 85%	> 23	3.5	Non-Toxic	–	–	–	Retention_time [5]: 10.5 min; Activity [8]: Non-Toxic; CHI [14]: 56.03
C[C@H](NCc1ccc(OCc2cccc(F)c2)cc1)C(N)=O [SAFINAMIDE]	–	–	–	–	–	–	< 50%	–	–	–	–	–	–	–	–	–	–
O=C(/C=C/C=C/c1ccc(O)c(O)c1)N1CCCCC1	3840 nM	1650 nM	2500 nM	> 4	< 50%	113 mV	< 50%	–	Active	> 85%	> 18	4.3	–	> 85%	Toxic	–	Retention_time [5]: 10.08 min; CHI [14]: 49.61; Activity [20]: Non-Toxic
N#C/C(=C\C=C\c1ccc(O)c(O)c1)C(=O)O	–	–	–	–	< 50%	144 mV	< 50%	< 50%	inactive	–	–	4.9	Non-Toxic	–	–	Non-Toxic	inhibition [16]: < 50%; inhibition [17]: < 50%
N#C/C(=C\C=C\c1ccc(O)c(O)c1)C(=O)NCCc1ccccc1	4000 nM	1270 nM	4380 nM	> 2.3	< 50%	163 mV	< 50%	–	Active	–	> 24	3	–	> 85%	Toxic	Non-Toxic	–
O=C(O)/C=C/c1ccc(O)c(O)c1 [CAFFEIC ACID]	–	–	–	–	–	168 mV	< 50%	< 50%	–	–	–	4.8	Non-Toxic	–	–	Non-Toxic	–
Cc1ccc(C(=O)c2cc(O)c(O)c([N+](=O)[O-])c2)cc1 [TOLCAPONE]	–	–	–	–	–	–	–	–	–	–	–	–	–	–	–	–	Activity [8]: Non-Toxic; Activity [23]: Non-Toxic; Activity [24]: Non-Toxic
